Among the data in ChEMBL document CHEMBL1138481, “Compounds binding to the S2-S3 pockets of thrombin” (J Med Chem, 2009) are Kd and IC50 values, retold here.

A short description of experiment [1]: Inhibition of human alpha thrombin by surface plasmon resonance assay. Background: In SPR one partner is held on a chip, and binding of the other changes the refractive index at the surface.
Experiment [2] can be described thus: Inhibition of human alpha thrombin by chromogenic substrate enzyme assay.

As usually defined, the Kd is the constant that tells how readily two partners part at equilibrium. Low values mean a tighter complex, high ones a looser complex. Usually IC50 stands for the concentration that gives 50% inhibition.

As to `COCCNC(=O)[C@@H]1CCCN1C(=O)[C@H](N)C(c1ccccc1)c1ccccc1`, the affinity in experiment [1], expressed as Kd, was 6.8 µM. For the same compound, in experiment [2], the IC50 was found to be 89 µM.
In the same order, the values of `CNC(=O)[C@@H]1CCCN1C(=O)CC1CCCCC1` are over 1000 µM and over 400 µM.
The compound `CNC(=O)[C@@H]1CCCN1C(=O)CC(c1ccccc1)c1ccccc1` gave a Kd in experiment [1] of over 1000 µM. In experiment [2], this compound gave a half-inhibitory concentration (IC50) of over 400 µM.
In the same order, the values of `O=C(NCc1cccs1)[C@@H]1CCCN1C(=O)CC1(O)c2ccccc2-c2ccccc21` are 23 µM and 49 µM.
For `COCCNC(=O)[C@@H]1CCCN1C(=O)Cc1ccc2c(c1)OCO2`, the dissociation constant (Kd) in experiment [1] is over 1000 µM. In addition, the IC50 in experiment [2] was over 400 µM.
In the same order, the values of `CCCNC(=O)[C@@H]1CCCN1C(=O)[C@H](N)Cc1ccc(Cl)cc1` are 45 µM and 210 µM.
Taken in the same sequence, the figures for `CNC(=O)[C@@H]1CCCN1C(=O)[C@H](N)C1CCCCC1` were 790 µM and over 400 µM.
In the same order, the values of `CCCNC(=O)[C@@H]1CCCN1C(=O)Cc1ccc2c(c1)OCO2` are over 1000 µM and over 400 µM.
In turn, `COCCNC(=O)[C@@H]1CCCN1C(=O)[C@H](N)Cc1ccc(Cl)cc1` gave a Kd in experiment [1] of 140 µM. Moreover, the IC50 in experiment [2] was over 400 µM.
In the same order, the values of `CCCNC(=O)[C@@H]1CCCN1C(=O)CC(c1ccccc1)c1ccccc1` are 270 µM and over 400 µM.
In the same order, the values of `O=C(NCc1cccs1)[C@@H]1CCCN1C(=O)CC(c1ccccc1)c1ccccc1` are 34 µM and 120 µM.
In the same order, the values of `CNC(=O)[C@@H]1CCCN1C(=O)[C@H](N)C(c1ccccc1)c1ccccc1` are 38 µM and 230 µM.
The compound `COCCNC(=O)[C@@H]1CCCN1C(=O)[C@H](N)C1CCCCC1` came in with a dissociation constant Kd in experiment [1] of 110 µM. The compound also displayed an IC50 in experiment [2] of over 400 µM.
In the same order, the values of `COCCNC(=O)[C@@H]1CCCN1C(=O)CC1CCCCC1` are over 1000 µM and over 400 µM.
`CCCNC(=O)[C@@H]1CCCN1C(=O)CC1(O)c2ccccc2-c2ccccc21` gave a Kd in experiment [1] of 99 µM. In addition, half-maximal inhibition in experiment [2] (IC50) required 380 µM.
In the same order, the values of `COCCNC(=O)[C@@H]1CCCN1C(=O)CCc1ccc(Cl)cc1` are 620 µM and over 400 µM.
In experiment [1], `CCCNC(=O)[C@@H]1CCCN1C(=O)[C@H](N)C1CCCCC1` showed a Kd of 27 µM. In addition, the concentration for half-maximal inhibition (IC50) in experiment [2] was 120 µM.
In the same order, the values of `CNC(=O)[C@@H]1CCCN1C(=O)[C@H](N)Cc1ccc(Cl)cc1` are 550 µM and over 400 µM.
Taken in the same sequence, the figures for `CNC(=O)[C@@H]1CCCN1C(=O)[C@H](NS(=O)(=O)Cc1ccccc1)C1CCCCC1` were 35 µM and 170 µM.
Take `N[C@@H](C(=O)N1CCC[C@H]1C(=O)NCc1cccs1)C1CCCCC1`: binding in experiment [1] was put at a Kd of 1.1 µM. For the same compound, the half-maximal inhibitory concentration (IC50) in experiment [2] is 4.2 µM.
In the same order, the values of `O=C(NCc1cccs1)[C@@H]1CCCN1C(=O)CCc1ccc(Cl)cc1` are 700 µM and over 400 µM.
In the same order, the values of `N[C@H](Cc1ccc(Cl)cc1)C(=O)N1CCC[C@H]1C(=O)NCc1cccs1` are 2.2 µM and 13 µM.
Taken in the same sequence, the figures for `CNC(=O)[C@@H]1CCCN1C(=O)Cc1ccc2c(c1)OCO2` were over 1000 µM and over 400 µM.
In experiment [1], `COCCNC(=O)[C@@H]1CCCN1C(=O)CC(c1ccccc1)c1ccccc1` had a dissociation constant (Kd) of over 1000 µM. Further, in experiment [2], the IC50 was over 400 µM.
Taken in the same sequence, the figures for `CNC(=O)[C@@H]1CCCN1C(=O)CC1(O)c2ccccc2-c2ccccc21` were over 1000 µM and over 400 µM.
`COCCNC(=O)[C@@H]1CCCN1C(=O)CC1(O)c2ccccc2-c2ccccc21` registered a dissociation constant Kd in experiment [1] of 750 µM. Also, the half-inhibitory concentration (IC50) in experiment [2] was over 400 µM.
Taken in the same sequence, the figures for `CNC(=O)[C@@H]1CCCN1C(=O)CCc1ccc(Cl)cc1` were over 1000 µM and over 400 µM.
Taken in the same sequence, the figures for `CC(C)CNC(=O)[C@@H]1CCCN1C(=O)[C@H](N)C1CCCCC1` were 49 µM and 230 µM.
Taken in the same sequence, the figures for `O=C(NCc1cccs1)[C@@H]1CCCN1C(=O)CC1CCCCC1` were 1000 µM and over 400 µM.
For the compound `O=C(NCc1cccs1)[C@@H]1CCCN1C(=O)Cc1ccc2c(c1)OCO2`, in experiment [1], the Kd turned out to be 250 µM. The IC50 in experiment [2] is over 400 µM.
In the same order, the values of `N[C@@H](C(=O)N1CCC[C@H]1C(=O)NCC1CCCCC1)C1CCCCC1` are 9 µM and 20 µM.
In the same order, the values of `N[C@@H](C(=O)N1CCC[C@H]1C(=O)NCc1cccs1)C(c1ccccc1)c1ccccc1` are 0.27 µM and 1.6 µM.
Taken in the same sequence, the figures for `CCCNC(=O)[C@@H]1CCCN1C(=O)CC1CCCCC1` were over 1000 µM and over 400 µM.
In experiment [1], `COCCNC(=O)[C@@H]1CCCN1C(=O)[C@H](O)C1CCCCC1` returned a dissociation constant Kd of over 1000 µM. The compound also had an IC50 in experiment [2] of over 400 µM.
`CCCNC(=O)[C@@H]1CCCN1C(=O)[C@H](N)C(c1ccccc1)c1ccccc1` displayed an IC50 in experiment [2] of 18 µM.
`CCCNC(=O)[C@@H]1CCCN1C(=O)CCc1ccc(Cl)cc1`: the dissociation constant (Kd) in experiment [1] is over 1000 µM. The same compound displayed an IC50 in experiment [2] of over 400 µM.
